The values below come from paper PMC8075848 (Cell Reports, 2021).

Where two headings read alike, the source gives them in different places.

For data set [1], the target named is T1, SARS-CoV-2 M^pro (Severe acute respiratory syndrome coronavirus 2, UniProt P0DTD1). The data set can be described thus: M^pro 1D 1H-NMR proteolysis inhibition assay. The format is biochemical. The following applies: 50 μM inhibitor, 100 nM M^pro.
Data set [2] deals with SARS-CoV-2. Description: SARS-CoV-2 replication inhibition in Vero E6 cells. The format is cell-based. Particulars: up to 50 μM drug.
Another data set concerns PL^pro. The following applies: ref Anson et al., 2020; cited from earlier work.
Data set [3] relates to SARS-CoV-2. The format is cell-based.
The target of data set [4] is T1, SARS-CoV-2 M^pro. Description: M^pro FRET proteolysis inhibition assay. Particulars: 20 μM drug, 10 nM M^pro. It is filed as biochemical.
The next data set has as its system M^pro. Particulars: cited from earlier work; for Inhibition of M^pro proteolytic activity: ref Anson et al., 2020, Fu et al., Kneller et al., 2020a, Ma et al.
Data set [5] concerns SARS-CoV-2. The following applies: ref Anson et al., 2020, Fu et al., Ma et al.; cited from earlier work.
The test system of data set [6] is SARS-CoV-2. The data set can be described thus: Antiviral combination assay with remdesivir in Vero E6 cells. Particulars: for Effect of HCV drug on the antiviral activity of remdesivir, in words / Effect of remdesivir on the antiviral activity (IC90) of the HCV drug, in words: Vero cells; for Effect of HCV drug on the antiviral activity of remdesivir, in words: IC90 of remdesivir with increasing HCV drug; for Effect of remdesivir on the antiviral activity (IC90) of the HCV drug, in words: addition of 1.25 μM remdesivir. The format is cell-based.

In data set [7] the test system is SARS-CoV-2. It is filed as cell-based. The source holds these as a separate data set.
For data set [8], the system named is SARS-CoV-2. The data set can be described thus: Time-of-addition assay. It is filed as cell-based. The following applies: BOC 50 μM, GRZ 25 μM, NAR 50 μM, VAN 5 μM, SIM 5 μM, added -2, 0, +2, +4 h.
In a further data set the target is SARS-CoV-2 PL^pro (Severe acute respiratory syndrome coronavirus 2, UniProt P0DTD1). It is filed as biochemical. The following applies: for PL^pro protease activity inhibition, in words: 20 μM drug (grazoprevir in Fig S6: 100 µM).
A further data set concerns Vero E6 cells. The following applies: MTT.
The test system of data set [9] is SARS-CoV-2. Particulars: ref Lo et al., 2021; cited from earlier work.

Regarding `C=C[C@@H]1C[C@]1(NC(=O)[C@@H]1C[C@@H](Oc2ncc(OC)c3ccc(Cl)cc23)CN1C(=O)[C@@H](NC(=O)OC(C)(C)C)C(C)(C)C)C(=O)NS(=O)(=O)C1CC1` [ASU, Asunaprevir], the “M^pro inhibitory activity in 1D 1H-NMR assay, in words” value (shortened to “M^pro inhibitory activity”) on SARS-CoV-2 M^pro [1] is on record as “moderate inhibitory activity”. The “Inhibition of virus replication in Vero E6 cells, in words” value (shortened to “Inhibition … in Vero E6 cells, in words”) with SARS-CoV-2 [2] is “inhibited SARS-CoV-2 virus replication at concentrations significantly lower than the concentrations that cause cytotoxicity”. Moreover, in the data set on PL^pro, the “Inhibition of PL^pro” value was “inhibit”. Moreover, the “Inhibition of virus replication in human 293T cells, in words” value (shortened to “Inhibition … in human 293T cells, in words”) with SARS-CoV-2 [3] is given as “did not inhibit viral replication in human cells at concentrations lower than those exhibiting cytotoxicity”. In addition, the “M^pro inhibition activity in FRET assay, in words” value (from here on “M^pro inhibition activity”) on SARS-CoV-2 M^pro [4] is listed as “not detected”.

As for `CC(C)(C)NC(=O)N[C@H](C(=O)N1C[C@H]2[C@@H]([C@H]1C(=O)NC(CC1CCC1)C(=O)C(N)=O)C2(C)C)C(C)(C)C` (stereo partly shown) [BOC, Boceprevir], the “M^pro inhibitory activity” value at SARS-CoV-2 M^pro [1] is on record as “substantial enzyme inhibition activity”. The “Inhibition of M^pro proteolytic activity” value in the data set with M^pro was “inhibit”. Moreover, the “Inhibition of SARS-CoV-2 replication in Vero cells” value in the data set on SARS-CoV-2 [5] is reported as “inhibit”. Moreover, in the data set on SARS-CoV-2 [2], the “Inhibition … in Vero E6 cells, in words” value is given as “inhibited SARS-CoV-2 virus replication at concentrations significantly lower than the concentrations that cause cytotoxicity”. Further, in the data set with SARS-CoV-2 [6], the “Synergy Score (ZIP, SynergyFinder) with remdesivir” value (“Synergy Score (ZIP, SynergyFinder)” below) is on record as −7.6; the “Effect of HCV drug on the antiviral activity of remdesivir, in words” value (“Effect of HCV drug” below) was “did not significantly affect the antiviral activity of remdesivir”; the “Effect of remdesivir on the antiviral activity (IC90) of the HCV drug, in words” value (from here on “Effect of remdesivir”) was “did not significantly affect”.

For `CC(C)(C)OC(=O)N[C@H]1CCCCC/C=C\[C@@H]2C[C@@]2(C(=O)NS(=O)(=O)C2CC2)NC(=O)[C@@H]2C[C@@H](OC(=O)N3Cc4cccc(F)c4C3)CN2C1=O` [DAN, Danoprevir], in the data set on SARS-CoV-2 [2], the “Inhibition … in Vero E6 cells, in words” value is “did not inhibit virus replication”. For the same molecule, the “Inhibition … in human 293T cells, in words” value with SARS-CoV-2 [3] is given as “did not inhibit virus replication”.

Consider `CC(C)C[C@H](NC(=O)OCc1ccccc1)C(=O)N[C@@H](CC1CCNC1=O)C(O)S(=O)(=O)[O-].[Na+]` (stereo partly shown) [GC-376], for which the “Specificity for M^pro relative to PL^pro” value in the data set on M^pro (ref Sacco et al., 2020) is given as “specific”. Also, the “Interaction with remdesivir (additive / synergistic)” value with SARS-CoV-2 [6] (combination with remdesivir, Vero E6 cells) is “additive (an additive interaction has a score between −10 to +10)”.

As for `CC(C)(C)[C@@H]1NC(=O)O[C@@H]2CCC[C@H]2OC/C=C/C(F)(F)c2nc3ccccc3nc2O[C@@H]2C[C@@H](C(=O)N[C@]3(C(=O)NS(=O)(=O)C4(C)CC4)C[C@H]3C(F)F)N(C2)C1=O` [GLE, Glecaprevir], the “Inhibition … in Vero E6 cells, in words” value in the data set with SARS-CoV-2 [2] is given as “did not inhibit virus replication”. Moreover, the “Inhibition … in human 293T cells, in words” value in the data set with SARS-CoV-2 [3] is “did not inhibit virus replication”.

As to `C=C[C@@H]1C[C@]1(NC(=O)[C@@H]1C[C@@H]2CN1C(=O)[C@H](C(C)(C)C)NC(=O)O[C@@H]1C[C@H]1CCCCCc1nc3ccc(OC)cc3nc1O2)C(=O)NS(=O)(=O)C1CC1.O` [GRZ, Grazoprevir], in the data set on SARS-CoV-2 [7], the “Interaction with remdesivir (additive / synergistic)” value is “synergistic (key: a synergistic interaction between drugs has a score greater than +10; an additive interaction has a score between −10 to +10; an antagonistic interaction has a score of less than −10)” and the “Synergy Score (ZIP, SynergyFinder)” value was “+20.3”. Also, the “Inhibition of virus replication by time of drug addition, in words” value (shortened to “Inhibition … of drug addition, in words”) in the data set with SARS-CoV-2 [8] was “inhibited by the addition of these drugs as late as 4 h post-infection”. Besides, the “PL^pro protease activity inhibition, in words” value at SARS-CoV-2 PL^pro is listed as “inhibit”. Further, the “PL^pro initial rate relative to absence of inhibitor (vo/vo,i)” value on SARS-CoV-2 PL^pro (100 μM drug concentration) is listed as 32% ± 7%. For the same molecule, at SARS-CoV-2 M^pro [1], the “M^pro inhibitory activity” value is listed as “moderate inhibitory activity”. Besides, in the data set with SARS-CoV-2 [2], the “Inhibition … in Vero E6 cells, in words” value is given as “inhibited SARS-CoV-2 virus replication at concentrations significantly lower than the concentrations that cause cytotoxicity”. In the data set on SARS-CoV-2 [6], the “Synergy Score (ZIP, SynergyFinder)” value is reported as “+25.0”; the “Effect of HCV drug” value was “increase the antiviral activity of remdesivir”; the “Effect of remdesivir” value is reported as “substantially reduces”. In addition, the “Inhibition of PL^pro” value in the data set on PL^pro is reported as “inhibit”. In addition, at SARS-CoV-2 M^pro [4], the “M^pro inhibition activity” value was “not detected”.

As for `CCCC[C@H](NC(=O)[C@@H]1[C@@H]2[C@H](CN1C(=O)[C@@H](NC(=O)NC1(CS(=O)(=O)C(C)(C)C)CCCCC1)C(C)(C)C)C2(C)C)C(=O)C(=O)NC1CC1` [NAR, Narlaprevir], the “M^pro inhibitory activity” value at SARS-CoV-2 M^pro [1] is recorded as “substantial enzyme inhibition activity”. Also, the “Inhibition of M^pro proteolytic activity” value with M^pro is on record as “inhibit”. The “Inhibition … in Vero E6 cells, in words” value in the data set with SARS-CoV-2 [2] is given as “inhibited SARS-CoV-2 virus replication at concentrations significantly lower than the concentrations that cause cytotoxicity”.

Consider `Cc1cnc(C(=O)N[C@H]2CCCCC/C=C\[C@@H]3C[C@@]3(C(=O)NS(=O)(=O)C3CC3)NC(=O)[C@@H]3C[C@@H](Oc4nc5ccccc5c5ccccc45)CN3C2=O)cn1` [PAR, Paritaprevir], for which the “PL^pro protease activity inhibition, in words” value on SARS-CoV-2 PL^pro was “inhibit”. For the same molecule, on SARS-CoV-2 M^pro [1], the “M^pro inhibitory activity” value is given as “does not inhibit”. Further, in the data set with SARS-CoV-2 [2], the “Inhibition … in Vero E6 cells, in words” value was “inhibited SARS-CoV-2 virus replication at concentrations significantly lower than the concentrations that cause cytotoxicity”. The “Synergy Score (ZIP, SynergyFinder)” value with SARS-CoV-2 [6] is “+17.3”. The “M^pro inhibition activity” value at SARS-CoV-2 M^pro [4] is listed as “does not inhibit”.

Turning to `CCC(CC)COC(=O)[C@H](C)N[P@](=O)(OC[C@H]1O[C@@](C#N)(c2ccc3c(N)ncnn23)[C@H](O)[C@@H]1O)Oc1ccccc1` [Remdesivir, remdesivir], the “Inhibition … of drug addition, in words” value in the data set on SARS-CoV-2 [8] is on record as “decreased its ability to suppress virus infection”.

Take `COc1ccc2c(O[C@@H]3C[C@H]4C(=O)N[C@]5(C(=O)NS(=O)(=O)C6CC6)C[C@H]5/C=C\CCCCN(C)C(=O)[C@@H]4C3)cc(-c3nc(C(C)C)cs3)nc2c1C` [SIM, Simeprevir]: in the data set on Vero E6 cells, the “Cytotoxicity in Vero E6 cells, in words” value is “some cytotoxicity was also observed”. The “Inhibition … of drug addition, in words” value in the data set with SARS-CoV-2 [8] is “inhibited by the addition of these drugs as late as 4 h post-infection”. For the same molecule, the “PL^pro protease activity inhibition, in words” value at SARS-CoV-2 PL^pro is “inhibit”. For the same molecule, the Interaction with remdesivir entry with SARS-CoV-2 [9] is given as “synergistically”. Besides, the “M^pro inhibitory activity” value at SARS-CoV-2 M^pro [1] was “moderate inhibitory activity”. For the same molecule, the “Inhibition … in Vero E6 cells, in words” value with SARS-CoV-2 [2] was “inhibited virus replication with low IC50 values”. In addition, in the data set on SARS-CoV-2 [6], the “Synergy Score (ZIP, SynergyFinder)” value is reported as “+30.2”; the “Effect of HCV drug” value is on record as “increase the antiviral activity of remdesivir”; the “Effect of remdesivir” value is recorded as “substantially reduces”. Besides, in the data set with PL^pro, the “Inhibition of PL^pro” value is listed as “inhibit”. In addition, at SARS-CoV-2 M^pro [4], the “M^pro inhibition activity” value is listed as “not detected”.

For the molecule `CCC[C@H](NC(=O)[C@@H]1[C@H]2CCC[C@H]2CN1C(=O)[C@@H](NC(=O)[C@@H](NC(=O)c1cnccn1)C1CCCCC1)C(C)(C)C)C(=O)C(=O)NC1CC1` [TEL, Telaprevir], the “M^pro inhibitory activity” value at SARS-CoV-2 M^pro [1] was “substantial enzyme inhibition activity”. Further, in the data set on M^pro, the “Inhibition of M^pro proteolytic activity” value is “inhibit”. The “Inhibition … in Vero E6 cells, in words” value with SARS-CoV-2 [2] is “did not inhibit virus replication”.

In the case of `CC[C@@H]1C[C@]1(NC(=O)[C@@H]1C[C@@H]2CN1C(=O)[C@H](C(C)(C)C)NC(=O)OCC(C)(C)CCCCc1cccc3c1CN(C3)C(=O)O2)C(=O)NS(=O)(=O)C1CC1` [VAN, Vaniprevir], in the data set with Vero E6 cells, the “Cytotoxicity in Vero E6 cells, in words” value is “some cytotoxicity was also observed”. The “PL^pro protease activity inhibition, in words” value at SARS-CoV-2 PL^pro is recorded as “inhibit”. The “M^pro inhibitory activity” value at SARS-CoV-2 M^pro [1] is “substantial inhibitory activity”. The “Inhibition … in Vero E6 cells, in words” value in the data set on SARS-CoV-2 [2] is “inhibited virus replication with low IC50 values”. Further, the “M^pro inhibition activity” value at SARS-CoV-2 M^pro [4] is listed as “not detected”.
